Results taken from ChEMBL document CHEMBL1130754, “Structure activity relationship study of known inhibitors of the enzyme 5 alpha-reductase (5AR)” (Bioorg Med Chem Lett, 1998).

What was measured:
[1] = target: T1, Steroid 5-alpha-reductase (Rattus norvegicus, UniProt P24008+P31214); test: Compound was tested for the inhibitory activity against Steroid 5-alpha-reductase in rat
T1 sequence (P24008 whole entry): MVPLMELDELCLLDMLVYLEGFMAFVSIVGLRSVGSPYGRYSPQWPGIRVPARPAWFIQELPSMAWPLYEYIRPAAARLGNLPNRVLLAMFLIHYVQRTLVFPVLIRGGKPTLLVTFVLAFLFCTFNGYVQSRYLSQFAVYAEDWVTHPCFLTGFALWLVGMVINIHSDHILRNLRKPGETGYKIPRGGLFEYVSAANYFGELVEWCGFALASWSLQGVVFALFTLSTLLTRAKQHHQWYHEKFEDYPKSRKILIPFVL
T1 sequence (P31214 whole entry): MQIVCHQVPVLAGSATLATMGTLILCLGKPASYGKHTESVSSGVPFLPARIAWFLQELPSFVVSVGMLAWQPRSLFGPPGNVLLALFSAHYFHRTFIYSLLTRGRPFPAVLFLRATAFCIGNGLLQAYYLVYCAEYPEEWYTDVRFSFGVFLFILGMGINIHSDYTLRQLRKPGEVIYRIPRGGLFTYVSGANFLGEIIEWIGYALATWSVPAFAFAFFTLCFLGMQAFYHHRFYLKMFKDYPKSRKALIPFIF

[2] = target: T2, 3-oxo-5-alpha-steroid 4-dehydrogenase 1 (Rattus norvegicus, UniProt P24008); test: Compound was tested for the inhibitory activity against Steroid 5-alpha-reductase type 1 in rat
T2 sequence (P24008 whole entry): T1 sequence (P24008 whole entry)

Row | IC50 [1] [nM] | IC50 [2] [nM] | SMILES
1 | 0.13 |  | CCCCCCCCNC(=O)[C@H]1CCC2C3CCC4NC(=O)CC[C@]4(C)C3CC[C@@]21C (some centres undefined)
2 | 6.3 |  | CC(C)(C)NC(=O)[C@H]1CCC2C3CCC4NC(=O)CC[C@]4(C)C3CC[C@@]21C (some centres undefined)
3 |  | 4.2 | CC(C)(C)NC(=O)[C@H]1CC[C@H]2[C@@H]3CC[C@H]4NC(=O)C=C[C@]4(C)[C@H]3CC[C@]12C [FINASTERIDE]

Row | SMILES | IC50 [1] [nM] | IC50 [2] [nM]
4 | C[C@]12CCC(=O)C=C1CC[C@@H]1[C@@H]2CC[C@]2(C)C(c3cccnc3)=CC[C@@H]12 | 10000 | 
